Source: patent US20230026259A1, “CA2 COMPOSITIONS AND METHODS FOR TUNABLE REGULATION” (Obsidian Therapeutics, Inc., priority 2019, published 2023)

What was measured:
Assay type in all cases: cell-based
[1] = tested on: NIH3T3 cells; assay: Immunoblotting of cell lysates for GFP after ligand treatment; conditions: 24 hours; for GFP protein expression by immunoblot, Celecoxib or Valdecoxib: NIH3T3 cells, 1, 3, 10 or 30 μM Celecoxib or Valdecoxib
Description: The protein expression in the presence of ligand was measured by immunoblotting the cell lysates for GFP.
The protein expression in the presence of ligand was measured by immunoblotting cell lysates for GFP.

[2] = tested on: NIH3T3 cells; assay: Destabilization mutant screening of human CA2 linked to GFP, ligand response by FACS (Valdecoxib, Celecoxib, Acetazolamide)
[3] = tested on: NIH3T3 cells; assay: as above; conditions: for stabilization with varying doses of Valdecoxib or Celecoxib: NIH3T3 cells, FACS
Description: To identify destabilizing mutations of human CA2 that are stabilized upon ligand binding to CA2, two rounds of mutant screening were performed, using a lentivirus CA2 mutant library provided by Genscript (China). These methods were used to generate a library of mutant polypeptides using mutagenesis primers and error prone PCR. Lentiviral vectors expressing the template, wild-type human CA2 operably linked to GFP(OT-001986) was also provided by Genscript along with the CA2 mutant library. The library was packaged into lentivirus, transduced into NIH3T3 cells at a multiplicity of infection (MOI) of approximately 0.3 and select stable cell pools were derived by selecting with selection marker puromycin.
To identify cell pools containing destabilizing mutants of CA2 that are stabilizing when CA2 is bound to its corresponding ligand, cells were sorted using FACS. In the initial round, the bottom 15% of population that was GFP negative in the absence of ligand was selected. Cells were expanded and then treated with 10 μM Celecoxib for 24 hours and harvested for cell sorting. The top 11% GFP positive cells which were also responsive to ligand treatment compared to untreated were collected. Celecoxib was removed from the cultures and replaced with DMSO. […] Genomic DNA was isolated and amplified CA2 mutants were reintroduced to the lentiviral vectors where CA2 was operably linked to GFP. The constructs were transduced into NIH3T3 cells with lentivirus vectors for each clone. The cells were treated with 10 μM Valdecoxib or 10 μM Celecoxib for 24 hours and analyzed by FACS. […] In Table 25, the Construct ID (OT-XXXXXX) refers to the construct which includes the referenced CA2 mutant and the Library ID (LibCXXXXXX) refers to the CA2 mutant itself.
The response of NIH3T3 cells to varying doses of Valdecoxib or Celecoxib for 24 hours was measured and analyzed by FACS.
Clones treated with different ligands were compared to examine the behavior of each mutant with the ligands.

[4] = NIH3T3, Acetazolamide 0.03 μM vs DMSO
[5] = NIH3T3, DMSO (reference), Acetazolamide experiment
[6] = NIH3T3, 10 μM Celecoxib vs DMSO
[7] = NIH3T3, 10 μM Valdecoxib vs DMSO
[8] = NIH3T3, Acetazolamide 0.03 μM, 24 hours
[9] = NIH3T3, Acetazolamide 0.1 μM vs DMSO
[10] = NIH3T3, Acetazolamide 0.1 μM, 24 hours
[11] = NIH3T3, Acetazolamide 0.3 μM vs DMSO
[12] = NIH3T3, Acetazolamide 0.3 μM, 24 hours
[13] = NIH3T3, Acetazolamide 1 μM vs DMSO
[14] = NIH3T3, Acetazolamide 1 μM, 24 hours
[15] = NIH3T3, Acetazolamide 3 μM vs DMSO
[16] = NIH3T3, Acetazolamide 3 μM, 24 hours
[17] = NIH3T3, Acetazolamide 10 μM vs DMSO
[18] = NIH3T3, Acetazolamide 10 μM, 24 hours
[19] = NIH3T3, Acetazolamide 30 μM vs DMSO
[20] = NIH3T3, Acetazolamide 30 μM, 24 hours
[21] = NIH3T3, Celecoxib 0 μM, 24 hours
[22] = NIH3T3, Celecoxib 0.03 μM, 24 hours
[23] = NIH3T3, Celecoxib 0.1 μM, 24 hours
[24] = NIH3T3, Celecoxib 0.3 μM, 24 hours
[25] = NIH3T3, Celecoxib 1 μM, 24 hours
[26] = NIH3T3, Celecoxib 3 μM, 24 hours
[27] = NIH3T3, Celecoxib 10 μM, 24 hours
[28] = NIH3T3, Celecoxib 30 μM, 24 hours
[29] = NIH3T3, DMSO, 24 hours (Acetazolamide experiment)
[30] = NIH3T3, Valdecoxib 0 μM, 24 hours
[31] = NIH3T3, Valdecoxib 0.03 μM, 24 hours
[32] = NIH3T3, Valdecoxib 0.1 μM, 24 hours
[33] = NIH3T3, Valdecoxib 0.3 μM, 24 hours
[34] = NIH3T3, Valdecoxib 1 μM, 24 hours
[35] = NIH3T3, Valdecoxib 3 μM, 24 hours
[36] = NIH3T3, Valdecoxib 10 μM, 24 hours
[37] = NIH3T3, Valdecoxib 30 μM, 24 hours

Substance: CA2 (aa 2-260 of WT, L197P) [LibC000186]
- GFP protein expression by immunoblot, Acetazolamide ([1]; NIH3T3 cells, 0.3, 1, 3, 10 or 30 μM Acetazolamide): stabilization of GFP with increasing ligand doses
- GFP protein expression by immunoblot, Celecoxib or Valdecoxib [1]: stabilization of GFP with increasing ligand doses
- Fold change [2, 4]: 1.19
- Fold change [2, 5]: 1
- Median PE ([3]; NIH3T3, 10 μM Celecoxib): 8156
- SR (stabilization ratio) [3, 6]: 10
- Median PE ([3]; NIH3T3, 10 μM Valdecoxib): 6570
- SR (stabilization ratio) [3, 7]: 8.05
- Median FITC / Median PE [3, 8]: 872
- Fold change [3, 9]: 1.18
- Median FITC / Median PE [3, 10]: 867
- Fold change [3, 11]: 1.23
- Median FITC / Median PE [3, 12]: 903
- Fold change [3, 13]: 1.28
- Median FITC / Median PE [3, 14]: 936
- Fold change [3, 15]: 1.28
- Median FITC / Median PE [3, 16]: 943
- MFI, comparative analysis ([3]; NIH3T3, Acetazolamide 10 μM): 1189
- Fold change [3, 17]: 1.62
- Median FITC / Median PE [3, 18]: 1189
- MFI, comparative analysis ([3]; NIH3T3, Acetazolamide 30 μM): 1827
- Fold change [3, 19]: 2.49
- Median FITC / Median PE [3, 20]: 1827
- Med (median fluorescence intensity) [3, 21]: 934
- SR (stabilization ratio) [3, 21]: 1
- Med (median fluorescence intensity) [3, 22]: 1177
- SR (stabilization ratio) [3, 22]: 1.26
- Med (median fluorescence intensity) [3, 23]: 1290
- SR (stabilization ratio) [3, 23]: 1.38
- Med (median fluorescence intensity) [3, 24]: 1470
- SR (stabilization ratio) [3, 24]: 1.57
- Med (median fluorescence intensity) [3, 25]: 2065
- SR (stabilization ratio) [3, 25]: 2.21
- Med (median fluorescence intensity) [3, 26]: 4171
- SR (stabilization ratio) [3, 26]: 4.47
- Med (median fluorescence intensity) [3, 27]: 8202
- SR (stabilization ratio) [3, 27]: 8.78
- Med (median fluorescence intensity) [3, 28]: 10200
- SR (stabilization ratio) [3, 28]: 10.92
- MFI, comparative analysis, normalized to parental day 1 ([3]; NIH3T3, Celecoxib μM (concentration not given)): 7312.627
- MFI, comparative analysis ([3]; NIH3T3, DMSO): 734
- Median PE ([3]; NIH3T3, DMSO): 816
- SR (stabilization ratio) ([3]; NIH3T3, DMSO (reference)): 1
- Median FITC / Median PE [3, 29]: 734
- Med (median fluorescence intensity) [3, 30]: 934
- SR (stabilization ratio) [3, 30]: 1
- Med (median fluorescence intensity) [3, 31]: 1223
- SR (stabilization ratio) [3, 31]: 1.31
- Med (median fluorescence intensity) [3, 32]: 1217
- SR (stabilization ratio) [3, 32]: 1.3
- Med (median fluorescence intensity) [3, 33]: 1363
- SR (stabilization ratio) [3, 33]: 1.46
- Med (median fluorescence intensity) [3, 34]: 1711
- SR (stabilization ratio) [3, 34]: 1.83
- Med (median fluorescence intensity) [3, 35]: 3357
- SR (stabilization ratio) [3, 35]: 3.59
- Med (median fluorescence intensity) [3, 36]: 7890
- SR (stabilization ratio) [3, 36]: 8.45
- Med (median fluorescence intensity) [3, 37]: 11800
- SR (stabilization ratio) [3, 37]: 12.63
- MFI, comparative analysis, normalized to parental day 1 ([3]; NIH3T3, Valdecoxib μM (concentration not given)): 7034.458
- stabilization with varying doses of Valdecoxib or Celecoxib ([3]; 24 hours): dose dependent stabilization

Substance: CA2 (aa 2-260 of WT, R27L, T87I, H122Y, N252D) [LibC000226]
- GFP protein expression by immunoblot, Celecoxib or Valdecoxib [1]: stabilization of GFP with increasing ligand doses
- Fold change [2, 4]: 1.31
- Fold change [2, 5]: 1
- Median PE ([3]; NIH3T3, 10 μM Celecoxib): 3816
- SR (stabilization ratio) [3, 6]: 8.65
- Median PE ([3]; NIH3T3, 10 μM Valdecoxib): 3588
- SR (stabilization ratio) [3, 7]: 7.93
- Median FITC / Median PE [3, 8]: 499
- Fold change [3, 9]: 1.85
- Median FITC / Median PE [3, 10]: 704
- Fold change [3, 11]: 3.58
- Median FITC / Median PE [3, 12]: 1360
- Fold change [3, 13]: 9.46
- Median FITC / Median PE [3, 14]: 3594
- Fold change [3, 15]: 17.49
- Median FITC / Median PE [3, 16]: 6645
- Fold change [3, 17]: 24.46
- Median FITC / Median PE [3, 18]: 9295
- Fold change [3, 19]: 28.68
- Median FITC / Median PE [3, 20]: 10900
- Med (median fluorescence intensity) [3, 21]: 531
- SR (stabilization ratio) [3, 21]: 1
- Med (median fluorescence intensity) [3, 22]: 711
- SR (stabilization ratio) [3, 22]: 1.34
- Med (median fluorescence intensity) [3, 23]: 661
- SR (stabilization ratio) [3, 23]: 1.24
- Med (median fluorescence intensity) [3, 24]: 750
- SR (stabilization ratio) [3, 24]: 1.41
- Med (median fluorescence intensity) [3, 25]: 1207
- SR (stabilization ratio) [3, 25]: 2.27
- Med (median fluorescence intensity) [3, 26]: 2544
- SR (stabilization ratio) [3, 26]: 4.79
- Med (median fluorescence intensity) [3, 27]: 5227
- SR (stabilization ratio) [3, 27]: 9.84
- Med (median fluorescence intensity) [3, 28]: 7171
- SR (stabilization ratio) [3, 28]: 13.5
- Median PE ([3]; NIH3T3, DMSO): 441
- SR (stabilization ratio) ([3]; NIH3T3, DMSO (reference)): 1
- Median FITC / Median PE [3, 29]: 380
- Med (median fluorescence intensity) [3, 30]: 531
- SR (stabilization ratio) [3, 30]: 1
- Med (median fluorescence intensity) [3, 31]: 580
- SR (stabilization ratio) [3, 31]: 1.09
- Med (median fluorescence intensity) [3, 32]: 623
- SR (stabilization ratio) [3, 32]: 1.17
- Med (median fluorescence intensity) [3, 33]: 655
- SR (stabilization ratio) [3, 33]: 1.23
- Med (median fluorescence intensity) [3, 34]: 873
- SR (stabilization ratio) [3, 34]: 1.64
- Med (median fluorescence intensity) [3, 35]: 1572
- SR (stabilization ratio) [3, 35]: 2.96
- Med (median fluorescence intensity) [3, 36]: 3902
- SR (stabilization ratio) [3, 36]: 7.35
- Med (median fluorescence intensity) [3, 37]: 6245
- SR (stabilization ratio) [3, 37]: 11.76
- stabilization with varying doses of Valdecoxib or Celecoxib ([3]; 24 hours): dose dependent stabilization
